Laboratory results taken from US20210061929A1, “ACTIVE-ENERGY-RAY-CURABLE COMPOSITION, ACTIVE-ENERGY-RAY-CURABLE INK, COMPOSITION STORED CONTAINER, TWO-DIMENSIONAL OR THREE-DIMENSIONAL IMAGE FORMING METHOD AND APPARATUS, CURED PRODUCT, AND DECORATED PRODUCT” (priority 2019, published 2021).

Experiments:
[1] = Skin sensitization test by local lymph node assay (LLNA), SI value of the materials; format: in vivo; settings: for SI (skin sensitization SI value): material as such, local lymph node assay (LLNA) method
Experimental: The amine value of the dispersant polymer, a skin sensitization SI value indicating a skin sensitizing potential, and the colony count by Ames test indicating carcinogenicity were obtained in the manners described below.
The SI value was measured by a skin sensitization test according to a local lymph node assay (LLNA) method.
Oral toxicity was tested according to OECD test guideline TG423. […] Skin sensitizing potential was tested according to OECD test guideline TG442B.

[2] = format: cell-based; settings: OECD test guideline TG471 (±S9 mix)
Experimental: (§1) As a safety test, AMES test was performed according to OECD test guideline TG471 (±S9 mix), and the result was negative. Oral toxicity was tested according to OECD test guideline TG423. […] Skin stimulation was tested according to OECD test guideline TG404, and the result was PII=0.5. Skin sensitizing potential was tested according to OECD test guideline TG442B.

[3] = Oral toxicity according to OECD test guideline TG423; format: in vivo
Experimental: as §1

[4] = format: in vivo; settings: OECD test guideline TG404
Experimental: as §1

| Compound | SI (skin sensitization SI value) [1] | also measured |
| --- | --- | --- |
| C=CC(=O)N(C)CC(=O)OCC [Example A1-2, N-acryloyl-N-methylglycineethyl ester] | (see Synthesis example 2) SI = 1.02 | – |
| C=C(C)C(=O)OCC(CC)(COC(=O)C(=C)C)COC(=O)C(=C)C [Example A2-3] | Shin- Nakamura Chemical Co., Ltd. “TMPT” SI = 1.03 | – |
| C=C(C)C(=O)OCC(COC(=O)C(=C)C)OC(C)=O [Example A2-6, 2-acetyl-1,3-glycerol dimethacrylate] | (see Synthesis example 5) SI = 1.40 | – |
| C=CC(=O)N(C)CC(=O)OC [Example A1-1, N-acryloyl-N-methylglycinemethyl ester] | (see Synthesis example 1) SI = 1.00 | AMES test result [2]: negative; LD50 ([3]; in vivo, po, 2000 mg/kg): ≥ 2000 mg/kg; Fatal cases (oral toxicity) ([3]; six cases): none of six cases was a fatal case; PII (skin stimulation) [4]: 0.5; SI value (skin sensitizing potential) ([1]; OECD test guideline TG442B): 1.00; Influence on the health of human bodies (conclusion of the safety tests) ([1]; in vivo, po): significantly uninfluential on the health of human bodies |
| C=C(C)C(=O)OCCOCCOC(=O)C(=C)C [Example A2-1] | Shin- Nakamura Chemical Co., Ltd. “2G” SI = 1.05 Ltd. | – |
| Isobornyl acrylate [Example A3-2] | Osaka Organic Chemical Industry Ltd. “Isobomyl acrylate” SI = 8.30 | SI (skin sensitization SI value) ([1]; listed as IBXA): 8.30 |
| C=CC(=O)OCC(CC)(COC(=O)C=C)COC(=O)C=C [Example A4-1] | Toagosei Co., Ltd. “M-3547” SI = 3.42 | – |
| C=C(C)C(=O)OCCO [Example A3-1, 2-hydroxyethyl methacrylate] | Tokyo Chemical Industry Co., Ltd. “2-hydroxyethyl methacrylate” SI = 1.26 | – |
| C=CC(=O)N(C)C(C)C(=O)OC (stereo not shown) [Example A1-3, N-acryloyl-N-methylalaninemethyl ester] | (see Synthesis example 3) SI = 1.12 | – |
